Data on two compounds can be found in patent publication US8323669B2, “Polymer conjugate of taxane” (priority 2006, dated 2012).

Holding throughout (format): in vivo, mouse (female CDF1 mice)
In assay [1] the test system is Mouse colon cancer, Colon26. Description: Antitumor effect of compounds 2 and 3 (Test Example 4). To be noted: single i.v. at maximum tolerance dose (conjugates 200 mg/kg as DTX, DTX 100 mg/kg). From the text:
Mouse colon cancer, Colon26, maintained by serial subcutaneous subculture in mice was minced into about 2-mm square fragments, and the fragments were subcutaneously transplanted on the dorsal part of female CDF1 mice with a trocar. Seven days after tumor transplantation, the polymer conjugates of the present invention (compound 2 and compound 3) and the control drug (docetaxel, DTX) were each intravenously administered once to the mouse tail vein at the respective maximum tolerance dose. The compound 2 and compound 3 were dissolved in 5% glucose solution for injection to a level for the use at a dose of 200 mg/kg as DTX. DTX to be used was prepared by dissolving a commercially available Taxotere injection (for 100 mg/kg use) in a vehicle solution attached to the product, and diluting it with physiological saline at the time of use. After the administration, the major axis (L mm) and minor axis (W mm) of the tumor were measured using a caliper, and the tumor volume was calculated by the formula: (L×W^2)/2.

For assay [2], the system named is Mouse colon cancer, Colon26. Description: Antitumor effect of compound 4 (Test Example 5). To be noted: single i.v. at maximum tolerance dose (compound 4 200 mg/kg as DTX, DTX 100 mg/kg). As for the experimental part:
Mouse colon cancer, Colon26, maintained by serial subcutaneous subculture in mice was minced into about 2-mm square fragments, and these fragments were subcutaneously transplanted on the dorsal part of female CDF1 mice with a trocar. Seven days after tumor transplantation, the polymer conjugate of the present invention (compound 4) or the control drug (docetaxel, DTX) was intravenously administered once to the mouse tail vein at the maximum tolerance dose. The compound 4 was dissolved in a 5% glucose solution for injection at a level for the use at a dose of 200 mg/kg as DTX. DTX to be used was prepared by dissolving a commercially available Taxotere injection (for the use at a dose of 100 mg/kg use) with a vehicle solution attached to the product and diluting it with physiological saline at the time of use. After the administration, the major axis (L mm) and minor axis (W mm) of the tumor were measured using a caliper, and the tumor volume was calculated by the formula: (L×W^2)/2.

Assay [3] has as its system Mouse colon cancer, Colon26. Description: Antitumor effect of compound 1 (Test Example 3). To be noted: i.v. three times (Day 0, 4, 8), 200 mg/kg as PTX. On the procedure: Mouse colon cancer, Colon26, maintained by serial subcutaneous subculture in mice was minced into about 2-mm square fragments, and the fragments were subcutaneously transplanted on the dorsal part of female CDF1 mice with a trocar. Seven days after tumor transplantation, the polymer conjugate of the present invention (compound 1) or the control drug (paclitaxel, PTX) was administered intravenously to the mouse tail vein three times at an interval of 4 days (Day 0, Day 4 and Day 8 in Table 1) at a dose of 200 mg/kg as PTX. The compound 1 was dissolved in a 5% glucose solution for injection and used. PTX was dissolved in anhydrous ethanol and cremophor (manufactured by Sigma Co., Ltd) and diluted with physiological saline at the time of use. After the administration, the major axis (L mm) and minor axis (W mm) of the tumor were measured using a caliper, and the volume of the tumor was calculated by the formula: (L×W^2)/2.

On to `CC(=O)O[C@@]12CO[C@@H]1C[C@H](O)[C@@]1(C)C(=O)[C@H](O)C3=C(C)[C@@H](OC(=O)[C@H](O)[C@@H](NC(=O)OC(C)(C)C)c4ccccc4)C[C@@](O)([C@@H](OC(=O)c4ccccc4)[C@H]21)C3(C)C` [DTX, docetaxel], for which the relative tumor volume in assay [1] (Day 0 after administration) stood at 1.00; in assay [1] (Day 2 after administration), 1.61; in assay [1] (Day 4 after administration) it was 1.57; in assay [1] (Day 7 after administration), 2.30; in assay [1] (Day 10 after administration), 5.85; in assay [2] (Day 0 after administration), 1.00. The relative tumor volume in assay [2] (Day 3 after administration) came to 1.17; in assay [2] (Day 5 after administration), 1.17; in assay [2] (Day 7 after administration), 2.17; in assay [2] (Day 10 after administration) it was 5.75.
Consider `CC(=O)O[C@H]1C(=O)[C@@]2(C)[C@H]([C@H](OC(=O)c3ccccc3)[C@]3(O)C[C@H](OC(=O)[C@H](O)[C@@H](NC(=O)c4ccccc4)c4ccccc4)C(C)=C1C3(C)C)[C@]1(OC(C)=O)CO[C@@H]1C[C@@H]2O` [Paclitaxel, paclitaxel], for which the relative tumor volume is 1 in assay [3] (Day 0 after administration initiation), 3.28 in assay [3] (Day 4 after administration initiation), 4.75 in assay [3] (Day 8 after administration initiation) and 4.07 in assay [3] (Day 11 after administration initiation).
